Laboratory results published in ChEMBL document CHEMBL1139293 (Bioorg Med Chem Lett, 2009).
Active and inactive are the calls of the source. No cut-off for these calls is given here.

Experiments:
[1] = biological target: Neuronal acetylcholine receptor subunit alpha-7 (Homo sapiens, UniProt P36544); assay: Displacement of [3H]MLA from alpha7 nAChR/5HT3A receptor expressed in HEK293 cells; type: cell-based
[2] = biological target: T1, Neuronal acetylcholine receptor; alpha3/beta4 (Homo sapiens, UniProt P30926+P32297); assay: Agonist activity at alpha3beta4 nAChR expressed in HEK293 cells at 1 mM by FLIPR membrane potential assay; type: functional, cell-based
[3] = biological target: T1, Neuronal acetylcholine receptor; alpha3/beta4; assay: Agonist activity at alpha3beta4 nAChR expressed in HEK293 cells by FLIPR membrane potential assay; type: functional, cell-based
[4] = biological target: T1, Neuronal acetylcholine receptor; alpha3/beta4; assay: Agonist activity at alpha3beta4 nAChR expressed in HEK293 cells at 300 uM by FLIPR membrane potential assay; type: functional, cell-based

T1 sequence (P30926 whole entry): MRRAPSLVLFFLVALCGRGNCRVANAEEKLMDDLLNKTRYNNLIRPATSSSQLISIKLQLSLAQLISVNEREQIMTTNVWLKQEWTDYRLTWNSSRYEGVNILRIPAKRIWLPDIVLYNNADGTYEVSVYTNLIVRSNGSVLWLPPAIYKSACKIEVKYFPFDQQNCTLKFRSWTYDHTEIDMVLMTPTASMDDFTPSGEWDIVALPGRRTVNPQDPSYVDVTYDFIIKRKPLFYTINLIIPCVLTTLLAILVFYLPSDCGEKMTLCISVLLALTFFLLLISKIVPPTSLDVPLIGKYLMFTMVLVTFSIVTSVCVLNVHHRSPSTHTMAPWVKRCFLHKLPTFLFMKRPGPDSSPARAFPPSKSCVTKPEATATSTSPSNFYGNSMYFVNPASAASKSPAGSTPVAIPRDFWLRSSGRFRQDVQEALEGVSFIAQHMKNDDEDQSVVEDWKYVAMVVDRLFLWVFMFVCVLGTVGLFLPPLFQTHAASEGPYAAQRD
T1 sequence (P32297 whole entry): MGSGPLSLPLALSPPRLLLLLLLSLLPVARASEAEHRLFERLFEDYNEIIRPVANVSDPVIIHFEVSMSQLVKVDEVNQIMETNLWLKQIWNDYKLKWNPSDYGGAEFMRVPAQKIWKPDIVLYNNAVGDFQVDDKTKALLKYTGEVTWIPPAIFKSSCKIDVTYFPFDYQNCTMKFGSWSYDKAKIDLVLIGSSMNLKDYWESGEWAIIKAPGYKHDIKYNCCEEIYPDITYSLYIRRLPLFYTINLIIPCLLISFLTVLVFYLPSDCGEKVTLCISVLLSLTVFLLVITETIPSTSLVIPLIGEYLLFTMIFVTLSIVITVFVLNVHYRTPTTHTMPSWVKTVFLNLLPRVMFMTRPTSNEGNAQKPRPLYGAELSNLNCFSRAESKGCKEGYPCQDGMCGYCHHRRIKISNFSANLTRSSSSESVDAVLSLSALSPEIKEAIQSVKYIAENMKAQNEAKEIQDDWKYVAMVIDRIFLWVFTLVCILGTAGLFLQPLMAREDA
Neuronal acetylcholine receptor subunit alpha-7, sequence (P36544 23-502 limits assumed): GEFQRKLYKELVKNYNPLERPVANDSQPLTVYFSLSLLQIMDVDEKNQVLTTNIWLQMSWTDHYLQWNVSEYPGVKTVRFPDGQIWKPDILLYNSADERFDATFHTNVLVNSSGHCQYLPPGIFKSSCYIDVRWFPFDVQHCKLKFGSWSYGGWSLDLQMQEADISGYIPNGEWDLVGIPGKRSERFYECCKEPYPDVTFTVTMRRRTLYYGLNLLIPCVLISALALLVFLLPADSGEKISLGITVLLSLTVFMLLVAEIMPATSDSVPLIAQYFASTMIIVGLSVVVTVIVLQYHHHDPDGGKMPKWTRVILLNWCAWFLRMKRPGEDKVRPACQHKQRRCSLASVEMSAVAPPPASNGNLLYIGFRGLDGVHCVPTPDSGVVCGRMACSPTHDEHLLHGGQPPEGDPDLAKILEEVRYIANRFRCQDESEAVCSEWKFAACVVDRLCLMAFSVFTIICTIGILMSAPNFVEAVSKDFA

For CC(CCNC(=O)N(C)C)N(C)C (stereo not given), the Ki [1] was > 1000 µM, the Activity [2] was “Active” and the EC50 ([3]; read-out: EC50) was > 3000 µM.

In the case of CCNC(=O)OCCC(C)N(C)C (stereo not given), the Ki [1] is reported as > 1000 µM and the EC50 ([3]; read-out: EC50) is reported as 55 µM.

CN(C)C(=O)OCCC(c1ccccc1)N(C)C (stereo not given) was tested, and the Ki [1] was 1000 µM, the pKi [1] was 3 and the Activity [4] was “Active”. The EC50 ([3]; read-out: EC50) was > 1000 µM and the EC50 ([3]; read-out: pEC50 (converted)) was 1000 µM.

Work on CC(CCOC(=O)N(C)Cc1ccccc1)N(C)C (stereo not given) yielded a Ki [1] of 1000 µM, a pKi [1] of 3 and an EC50 ([3]; read-out: EC50) of 6.7 µM.

With CNC(=O)/C=C/CC(C)N(C)C (stereo not given) the Ki [1] was > 1000 µM and the EC50 ([3]; read-out: EC50) was 150 µM.

With CC(C/C=C/C(=O)N(C)C)N(C)C (stereo not given) the Ki [1] was > 1000 µM and the EC50 ([3]; read-out: EC50) was 91 µM.

For CC(CCCC(=O)N(C)C)N(C)C (stereo not given), the Ki [1] was > 1000 µM, the Activity [4] was “Active” and the EC50 ([3]; read-out: EC50) was 1000 µM.

In the case of CN(C)C(=O)OCCC(c1ccsc1)N(C)C (stereo not given), the Ki [1] is reported as 1000 µM, the pKi [1] is reported as 3 and the Activity [4] is reported as “Active”. The EC50 ([3]; read-out: EC50) was > 1000 µM and the EC50 ([3]; read-out: pEC50 (converted)) was 1000 µM.

In the case of CC(CCSC(=O)N(C)C)N(C)C (stereo not given), the Ki [1] is reported as > 1000 µM and the EC50 ([3]; read-out: EC50) is reported as 430 µM.

For CC(CCOC(=O)N(C)CCO)N(C)C (stereo not given), the Ki [1] was > 1000 µM and the EC50 ([3]; read-out: EC50) was 160 µM.

With CN(C)C(=O)OCCC(CO)N(C)C (stereo not given) the Ki [1] was > 1000 µM, the Activity [2] was “Active” and the Activity [4] was “Active”. For the same compound, the EC50 ([3]; read-out: EC50) was > 3000 µM.

In the case of CC(CCOC(=O)N(C)c1ccc(C#N)cc1)N(C)C (stereo not given), the Ki [1] is reported as 1000 µM, the pKi [1] is reported as 3 and the Activity [4] is reported as “Active”. For the same compound, the EC50 ([3]; read-out: EC50) was > 1000 µM and the EC50 ([3]; read-out: pEC50 (converted)) was 1000 µM.

CC(CCOC(=O)N(C)c1ccccc1)N(C)C (stereo not given) showed a Ki [1] of 1000 µM, a pKi [1] of 3 and an EC50 ([3]; read-out: EC50) of 51 µM.

For CC(CCNC(=O)Nc1ccccc1)N(C)C (stereo not given), the Ki [1] was > 1000 µM, the Activity [2] was “Active” and the EC50 ([3]; read-out: EC50) was > 3000 µM.

In the case of CC(CCOC(N)=O)N(C)C (stereo not given), the Ki [1] is reported as > 1000 µM and the EC50 ([3]; read-out: EC50) is reported as 57 µM.

With CC(CCOC(=O)NCCO)N(C)C (stereo not given) the Ki [1] was > 1000 µM and the EC50 ([3]; read-out: EC50) was 300 µM.

In the case of CCCNC(=O)OCCC(C)N(C)C (stereo not given), the Ki [1] is reported as > 1000 µM and the EC50 ([3]; read-out: EC50) is reported as 95 µM.

Compound CC(CCOC(=O)N(C)c1ccc(Cl)cc1)N(C)C (stereo not given) has a Ki [1] of 1000 µM, a pKi [1] of 3 and an EC50 ([3]; read-out: EC50) of 28 µM. The EC50 ([3]; read-out: pEC50 (converted)) was 31.6 µM.

For CC(CCOC(=O)NCCCc1ccccc1)N(C)C (stereo not given), the Ki [1] was > 1000 µM, the Activity [4] was “Active” and the EC50 ([3]; read-out: EC50) was > 1000 µM. The EC50 ([3]; read-out: pEC50 (converted)) was 1000 µM.

With CC(CCOC(=S)N(C)C)N(C)C (stereo not given) the Ki [1] was > 1000 µM and the EC50 ([3]; read-out: EC50) was 53 µM.
